According to article PMC6310865 (Proceedings of the National Academy of Sciences of the …, 2018):
Read-outs that look alike come from different tables or passages of the source. Ends that are not written are not given here.

Tests used:
[1] = tested on: CD4+ T cells; format: cell-based, human
[2] = molecular target: DQ0602 (HLA DQB1*06:02/DQA1*01:02 heterodimer) (Homo sapiens, UniProt P01909+P01920, A157G/A45G/C70R/E118A/E183D/E77G/F83G/G63E/H151Q/H199R/H252R/H253Q/I129T/I235V/I88M/INS77G/K197Q/L117V/L119F/L178F/L71W/L74F/L85Q/L91A/L98M/N214S/P87R/Q116E/Q76K/R102G/R240Q/R75S/R78G/S102Y/S185I/S41F/S97I/T121G/T122I/T172A/T86R/V229M/V68A/V73E/Y34C/Y41F/Y58L); format: binding; conditions: in words; Dataset S1
[3] = 13 post-Pandemrix cases versus 10 post-Pandemrix controls

Row | Substance | Tetramer reactivity (frequency of specific CD4+ T cells) in primary screening [1] | DQ0602 binding affinity of amidated versus nonamidated HCRT peptide [2] | Tetramer-positive CD4+ T cells in T1N cases versus DQ0602 controls [1, 3] | Tetramer-positive CD4+ T cells in T1N cases versus DQ0602 controls ([1]; all cases versus controls, […]) | Tetramer-positive CD4+ T cells in T1N cases versus DQ0602 controls ([1]; 7 recent onset cases versus 21 controls)
1 | NP261–275: nucleoprotein epitope shared between A/California/07/2009 and PR8 (RSALILRGSVAHKSC; UniProt P03466 261-275, looked up, fragment) | highest frequencies |  |  |  | 
2 | NP17–31: nucleoprotein epitope, PR8 specific (GERQNATEIRASVGK) | highest frequencies |  |  |  | 
3 | HCRT86–97-NH2: C-terminal amidated HCRT86–97, as in secreted, mature hypocretin-2 (ASGNHAAGILTM-NH2; UniProt O43612 86-97, looked up, fragment) |  | higher affinity | significantly higher reactivity | marginally higher values | 
4 | HCRT54–66-NH2: C-terminal amidated HCRT54–66, as in secreted, mature hypocretin-1 (HGAGNHAAGILTL-NH2) |  | higher affinity | marginally higher values | significantly higher percentage | higher reactivity
